From ChEMBL document CHEMBL5375977, “Discovery of a First-in-Class GPR183 Antagonist for the Potential Treatment of Rheumatoid Arthritis” (J Med Chem, 2023)
≈ marks a conversion by molar mass, not a printed value.

Key:
[1] = Aqueous solubility of compound in FaSSIF at pH 6.28; assay type: physicochemical
[2] = Clearance in ICR mouse at 1 mg/kg,iv measured upto 24 hrs; assay type: ADME, organism-based; details: in vivo
[3] = Apparent permeability across basolateral to apical side in human Caco-2 cells; assay type: ADME, cell-based
[4] = Cmax in C57BL/6 mouse at 1 mg/kg,po measured upto 24 hrs; assay type: ADME, organism-based; design: dose 1 mg/kg, time < 24 hrs, route po; details: in vivo
[5] = Half life in dog liver microsomes; assay type: ADME, Canis lupus familiaris, Microsome
[6] = Half life in mouse liver microsomes; assay type: ADME, Microsome
[7] = Half life in human liver microsomes; assay type: ADME, Microsome
[8] = Half life in mouse Hepatocyte; assay type: ADME, cell-based; details: hepatocytes
[9] = Tmax in ICR mouse at 10 mg/kg,po measured upto 24 hrs; assay type: ADME, organism-based; details: in vivo
[10] = Aqueous solubility of compound in FeSSIF at pH 4.83; assay type: physicochemical
[11] = Drug distribution in C57BL/6 mouse plasma at po administration; assay type: ADME, organism-based; details: in vivo
[12] = Oral bioavailability in dog at 10 mg/kg measured upto 24 hrs; assay type: ADME, organism-based, Canis lupus familiaris; details: in vivo
[13] = AUClast in ICR mouse at 10 mg/kg,po measured upto 24 hrs; assay type: ADME, organism-based; design: time < 24 hrs, dose 10 mg/kg, route po; details: in vivo
[14] = AUClast in ICR mouse at 1 mg/kg,iv measured upto 24 hrs; assay type: ADME, organism-based; design: dose 1 mg/kg, time < 24 hrs, route iv; details: in vivo
[15] = Oral bioavailability in rat at 10 mg/kg measured upto 24 hrs; assay type: ADME, organism-based; details: in vivo
[16] = Half life in monkey liver microsomes; assay type: ADME, Macaca mulatta, Microsome; details: rhesus monkey
[17] = Aqueous solubility of compound in SGF at pH 2.26; assay type: physicochemical
[18] = Apparent permeability across apical to basolateral side in human Caco-2 cells; assay type: ADME, cell-based
[19] = Half life in rat liver microsomes; assay type: ADME, Microsome
[20] = Cmax in ICR mouse at 10 mg/kg,po measured upto 24 hrs; assay type: ADME, organism-based; design: time < 24 hrs, dose 10 mg/kg, route po; details: in vivo
[21] = Cmax in ICR mouse at 1 mg/kg,iv measured upto 24 hrs; assay type: ADME, organism-based; design: time < 24 hrs, dose 1 mg/kg, route iv; details: in vivo
[22] = Oral bioavailability in ICR mouse at 10 mg/kg measured upto 24 hrs; assay type: ADME, organism-based; details: in vivo
[23] = Volume of distribution at steady state in ICR mouse at 1 mg/kg,iv measured upto 24 hrs; assay type: ADME, organism-based; details: in vivo, read-out: Vdss
[24] = Half life in ICR mouse at 1 mg/kg,iv measured upto 24 hrs; assay type: ADME, organism-based; details: in vivo
[25] = Half life in ICR mouse at 10 mg/kg,po measured upto 24 hrs; assay type: ADME, organism-based; details: in vivo

COc1ncc(C(=O)N2CCN(C(=O)/C=C/c3ccc4c(c3)OC(F)(F)O4)CC2)cn1
solubility [1]: 40 µM (≈ 17.3 µg/mL) | clearance [2]: 3.98 mL/min/kg | Papp B→A [3]: 16 ×10⁻⁶ cm/s | Cmax [4]: 878 ng/mL | half-life [5]: > 3.11 h | half-life [6]: > 3.11 h | half-life [7]: > 3.11 h | half-life [8]: 22.2 h | Tmax [9]: 1.33 h | solubility [10]: 134 µM (≈ 57.9 µg/mL) | Drug uptake [11]: Dose-Dependent Effect | bioavailability [12]: > 100% | AUC(0-t) at 24 h [13]: 49700 ng·h/mL | AUC(0-t) at 24 h [14]: 4190 ng·h/mL | bioavailability [15]: > 100% | half-life [16]: > 3.11 h | solubility [17]: 63 µM (≈ 27.2 µg/mL) | Papp A→B [18]: 19.6 ×10⁻⁶ cm/s | half-life [19]: > 3.11 h | Cmax [20]: 5900 ng/mL

O=C(/C=C/c1ccc2c(c1)OC(F)(F)O2)N1CCN(C(=O)N2CCC2)CC1
Cmax [21]: 1000 ng/mL | bioavailability [22]: 116% | clearance [2]: 27.9 mL/min/kg | Tmax [9]: 0.25 h | Vd [23]: 0.94 L/kg | half-life [24]: 0.42 h | AUC(0-t) at 24 h [13]: 6840 ng·h/mL | half-life [25]: 1.43 h | AUC(0-t) at 24 h [14]: 586 ng·h/mL | Cmax [20]: 4900 ng/mL
